Target: T1, Endothelial lipase (EL) (Homo sapiens, UniProt Q9Y5X9)
T1 construct: HT-1080 cells that were transformed using RAGE technology (Athersys) to overexpress endogenous EL; endogenous in cells; conditioned medium used
T1 sequence (Q9Y5X9 21-500): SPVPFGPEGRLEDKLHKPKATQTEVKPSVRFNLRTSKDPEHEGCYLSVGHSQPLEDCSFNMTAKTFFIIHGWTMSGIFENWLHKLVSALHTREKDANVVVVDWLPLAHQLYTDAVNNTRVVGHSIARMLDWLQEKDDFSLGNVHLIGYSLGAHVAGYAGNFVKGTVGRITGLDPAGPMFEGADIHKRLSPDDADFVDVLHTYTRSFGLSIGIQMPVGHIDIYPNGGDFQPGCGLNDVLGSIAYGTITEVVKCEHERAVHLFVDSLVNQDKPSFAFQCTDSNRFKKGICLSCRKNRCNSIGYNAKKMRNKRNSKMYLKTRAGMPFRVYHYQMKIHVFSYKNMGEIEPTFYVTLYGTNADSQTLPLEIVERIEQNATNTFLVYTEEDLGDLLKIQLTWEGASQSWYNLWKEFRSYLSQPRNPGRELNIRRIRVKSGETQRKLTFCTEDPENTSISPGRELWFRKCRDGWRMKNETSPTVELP
Assay: Endothelial lipase (EL) enzymatic assay, fluorescent substrate A10070 in DMPG vesicles
Assay type: biochemical
Conditions: EL from conditioned media of HT-1080 cells; compound preincubated 30 min at 37° C; read-out: EL IC50
Protocol: Endothelial lipase (EL) and hepatic lipase (HL) activities were measured using a fluorescent substrate, A10070, (Invitrogen, CA) doped into an artificial vesicle containing DMPG (Avanti Polar Lipids) as the excipient. Vesicles were prepared by combining 571 μL of 29 mM DMPG in a 1:1 mixture of MeOH and CHCl3 with 2000 μL of 1 mM A10070 in a 1:1 mixture of MeOH and CHCl3. The mixture was dried under nitrogen in multiple vials then resuspended in 20 mL total volume of 50 mM HEPES pH 8.0 buffer containing 50 mM NaCl and 0.2 mM EDTA. The sample was allowed to sit at room temperature for 15 min and then was sonicated 3×4 mins on ice with a Branson Sonicator using duty cycle 1. This preparation provides vesicles with a mole fraction of 0.11 for the FRET substrate.
The enzymatic assay was measured using 384-well white Optiplates. Each well contained 20 μL of assay buffer (50 mM HEPES pH 8.0, 50 mM NaCl and 1 mM CaCl2) and 0.25 μL of a DMSO solution containing a compound of interest. EL or HL (10 μL) was added and allowed to incubate with the compound for 30 min at 37° C. The source of EL was conditioned media obtained from HT-1080 cells that were transformed using RAGE technology (Athersys) to overexpress endogenous EL, and HL was partially purified from conditioned media obtained from COS cells overexpressing HL. The reaction was started by the addition of 10 μL of a 1:10 dilution of vesicles. The final total reaction volume was […]. The reaction rates were measured on a Gemini plate reader with an excitation wavelength of 490 nm and an emission wavelength of 530 nm. Readings were taken over a period of 60 minutes, and the slope between 300 and 900 secs of the readout was used to calculate the rate of the reaction.

Which IC50 does the source give for CC(c1nnc(CNS(N)(=O)=O)o1)c1nc2ccc(-c3ccc(F)nc3)cc2s1 (stereo not drawn) [Reference 3, N-((5-(1-(6-(6-Fluoro-3-pyridinyl)-1,3-benzothiazol-2-yl)ethyl)-1,3,4-oxadiazol-2-yl)methyl)sulfamide, reference compound] here?
Its IC50 is 6520 nM.

With CC1(Cc2nnc(C(c3nc4ccc(-c5ccccc5)cc4s3)S(C)(=O)=O)o2)NC(=O)NC1=O (stereo not drawn) [Example 29, 5-methyl-5-((5-((methylsulfonyl)(6-phenyl-1,3-benzothiazol-2-yl)methyl)-1,3,4-oxadiazol-2-yl)methyl)-2,4-imidazolidinedione] as the molecule, how does the IC50 read?
Its IC50 is less than 10 nM.

How did the IC50 turn out when Cc1nccn1-c1nc(-c2ccc3nc(C(c4nnc(CC5SC(=O)NC5=O)o4)S(C)(=O)=O)sc3c2)cs1 (stereo not drawn) [Example 25, 5-((5-((6-(2-(2-methyl-1H-imidazol-1-yl)thiazol-4-yl)benzo[d]thiazol-2-yl)(methylsulfonyl)methyl)-1,3,4-oxadiazol-2-yl)methyl) thiazolidine-2,4-dione] was run?
The IC50 was less than 10 nM.

With CS(=O)(=O)C(c1nnc(CN)o1)c1nc2ccc(-c3ccccc3)cc2s1 (stereo not drawn) [Example 85, (5-((Methylsulfonyl)(6-phenylbenzo[d]thiazol-2-yl)methyl)-1,3,4-oxadiazol-2-yl)methanamine] as the molecule, how does the IC50 read?
Its IC50 is 48 nM.

NS(=O)(=O)NCc1nnc(C(c2nc3ccc(-c4ccccc4)cc3s2)S(=O)(=O)CCC(F)(F)F)o1 (stereo not drawn) [Example 50, N-[(5-{(6-phenyl-1,3-benzothiazol-2-yl) [(3,3,3-trifluoropropyl)sulfonyl]methyl}-1,3,4-oxadiazol-2-yl)methyl]sulfuric diamide] was tested. Which IC50 did it give?
Its IC50 is less than 10 nM.

C[C@]1(Cc2nnc(C(c3nc4ccc(-c5ccccc5)cc4s3)S(C)(=O)=O)o2)OC(=O)NC1=O (stereo partly drawn) [Example 42, (5R)-5-Methyl-5-((5-((methylsulfonyl)(6-phenylbenzo[d]thiazol-2-yl)methyl)-1,3,4-oxadiazol-2-yl)methyl)oxazolidine-2,4-dione] was tested. Which IC50 did it give?
The IC50 was less than 10 nM.

With CC1(Cc2nnc(C(c3nc4ccc(-c5ccc(F)nc5)cc4s3)S(=O)(=O)Cc3ccccc3)o2)SC(=O)NC1=O (single isomer, unassigned; isomer b) [Example 4, 5-((5-((benzylsulfonyl)(6-(6-fluoropyridin-3-yl)benzo[d]thiazol-2-yl)methyl)-1,3,4-oxadiazol-2-yl)methyl)-5-methylthiazolidine-2,4-dione (Isomer B)] as the molecule, how does the IC50 read?
Its IC50 is less than 10 nM.

With O=C1NC(=O)C(Cc2nnc(C(c3nc4c(F)cc(-c5ccccc5)cc4s3)S(=O)(=O)Cc3ccccc3)o2)S1 (stereo not drawn) [Example 93, 5-((5-((benzylsulfonyl) (4-fluoro-6-phenyl-benzo[d]thiazol-2-yl)methyl)-1,3,4-oxadiazol-2-yl)methyl)thiazolidine-2,4-dione] as the molecule, how does the IC50 read?
Its IC50 is less than 10 nM.

For NS(=O)(=O)Cc1nnc(C(c2nc3ccc(-c4ccccc4)cc3s2)S(=O)(=O)CCC(F)(F)F)o1 (stereo not drawn) [Example 35], which IC50 is on record?
Its IC50 is less than 10 nM.

For CC(O)(c1nnc(CNS(N)(=O)=O)o1)c1nc2ccc(-c3ccc(F)nc3)cc2s1 (stereo not drawn) [Reference 4, N-((5-(1-(6-(6-Fluoro-3-pyridinyl)-1,3-benzothiazol-2-yl)-1-hydroxyethyl)-1,3,4-oxadiazol-2-yl)methyl)sulfamide, reference compound], which IC50 is on record?
The IC50 was 14900 nM.

For O=S(=O)(O)Cc1nnc(C(c2nc3ccc(-c4ccccc4)cc3s2)S(=O)(=O)Cc2ccc(F)cc2)o1 (stereo not drawn) [Example 34, (5-(((4-fluorobenzyl)sulfonyl)(6-phenylbenzo [d]thiazol-2-yl)methyl)-1,3,4-oxadiazol-2-yl)methanesulfonic acid], which IC50 is on record?
Its IC50 is 131 nM.

With COc1nc(-c2nnc(C(c3nc4ccc(-c5ccccc5)cc4s3)S(=O)(=O)CCC(F)(F)F)o2)c(O)c(=O)[nH]1 (stereo not drawn) [Example 44, 5-Hydroxy-2-methoxy-6-(5-((6-phenylbenzo[d]thiazol-2-yl)((3,3,3-trifluoropropyl)sulfonyl)methyl)-1,3,4-oxadiazol-2-yl)pyrimidin-4(3H)-one] as the molecule, how does the IC50 read?
The IC50 was 77 nM.

Which IC50 does the source give for CC(C)S(=O)(=O)C(c1nnc(CNS(N)(=O)=O)o1)c1nc2ccc(-c3ccccc3)cc2s1 (stereo not drawn) [Example 49] here?
The IC50 was less than 10 nM.

CC1(Cc2nnc(C(c3nc4ccc(-c5ccnc(F)c5)cc4s3)S(=O)(=O)Cc3ccccc3)o2)NC(=O)NC1=O (single isomer, unassigned; isomer a) [Example 9, 5-((5-((benzylsulfonyl)(6-(2-fluoropyridin-4-yl)benzo[d]thiazol-2-yl)methyl)-1,3,4-oxadiazol-2-yl)methyl)-5-methylimidazolidine-2,4-dione (Isomer A)] was tested. Which IC50 did it give?
Its IC50 is 122 nM.

How did the IC50 turn out when CC1(Cc2nnc(Cc3nc4ccc(-c5ccccc5)cc4s3)o2)NC(=O)N(CC(F)(F)F)C1=O (single isomer, unassigned; isomer b) [Example 26, 5-Methyl-5-((5-((6-phenylbenzo[d]thiazol-2-yl)methyl)-1,3,4-oxadiazol-2-yl)methyl)-3-(2,2,2-trifluoroethyl)imidazolidine-2,4-dione (Isomer B)] was run?
The IC50 was less than 10 nM.

CC(C)(C)OC(=O)NCc1nnc(C(c2nc3ccc(-c4ccccc4)cc3s2)S(C)(=O)=O)o1 (stereo not drawn) [Example 83, tert-Butyl ((5-((methylsulfonyl)(6-phenylbenzo[d]thiazol-2-yl)methyl)-1,3,4-oxadiazol-2-yl)methyl)carbamate] was tested. Which IC50 did it give?
Its IC50 is less than 10 nM.

For NS(=O)(=O)NCc1nnc(C(c2nc3ccc(-c4ccccc4)cc3s2)S(=O)(=O)CC2CCCCC2)o1 (stereo not drawn) [Example 71, N-((5-(((cyclohexylmethyl)sulfonyl)(6-phenyl-1,3-benzothiazol-2-yl)methyl)-1,3,4-oxadiazol-2-yl)methyl)sulfamide], which IC50 is on record?
Its IC50 is less than 10 nM.

Which IC50 does the source give for CC1(Cc2nnc(C(c3nc4ccc(-c5ccnc(F)c5)cc4s3)S(=O)(=O)Cc3ccccc3)o2)NC(=O)NC1=O (single isomer, unassigned; isomer b) [Example 10, 5-((5-((benzylsulfonyl)(6-(2-fluoropyridin-4-yl)benzo[d]thiazol-2-yl)methyl)-1,3,4-oxadiazol-2-yl)methyl)-5-methylimidazolidine-2,4-dione (Isomer B)] here?
The IC50 was 19 nM.

For N#CC1(NC(=O)Cc2nnc(C(c3nc4ccc(-c5ccccc5)cc4s3)S(=O)(=O)Cc3ccccc3)o2)CC1 (stereo not drawn) [Example 40, 2-(5-((benzylsulfonyl)(6-phenylbenzo[d]thiazol-2-yl)methyl)-1,3,4-oxadiazol-2-yl)-N-(1-cyanocyclopropyl)acetamide], which IC50 is on record?
The IC50 was less than 10 nM.

CS(=O)(=O)C(c1nnc(C[C@@H]2NS(=O)(=O)NC2=O)o1)c1nc2ccc(-c3ccccc3)cc2s1 (stereo partly drawn) [Example 45, (4S)-4-((5-((Methylsulfonyl)(6-phenylbenzo[d]thiazol-2-yl)methyl)-1,3,4-oxadiazol-2-yl)methyl)-1,2,5-thiadiazolidin-3-one 1,1-dioxide] was tested. Which IC50 did it give?
The IC50 was less than 10 nM.

Which IC50 does the source give for CS(=O)(=O)C(c1nnc(CNS(N)(=O)=O)o1)c1nc2ccc(-c3ccc(C(=O)NCC(F)(F)F)cc3)cc2s1 (stereo not drawn) [Example 78, 4-(2-((methylsulfonyl) (5-((sulfamoylamino)methyl)-1,3,4-oxadiazol-2-yl)methyl)benzo[d]thiazol-6-yl)-N-(2,2,2-trifluoroethyl) benzamide] here?
The IC50 was less than 10 nM.

For CC(c1nnc(CNS(N)(=O)=O)o1)(c1nc2ccc(-c3ccccc3)cc2s1)S(C)(=O)=O (single isomer, unassigned) [Reference 1, Isomer A, N-((5-(1-(Methylsulfonyl)-1-(6-phenyl-1,3-benzothiazol-2-yl)ethyl)-1,3,4-oxadiazol-2-yl)methyl)sulfamide, reference compound], which IC50 is on record?
The IC50 was 3750 nM.

Which IC50 does the source give for CC1(Cc2nnc(C(c3nc4ccc(-c5ccc(F)nc5)cc4s3)S(=O)(=O)Cc3ccccc3)o2)NC(=O)NC1=O (single isomer, unassigned; isomer b) [Example 7, 5-((5-((benzylsulfonyl)(6-(6-fluoropyridin-3-yl)benzo[d]thiazol-2-yl)methyl)-1,3,4-oxadiazol-2-yl)methyl)-5-methylimidazolidine-2,4-dione (Isomer B)] here?
Its IC50 is 188 nM.

With CC(C)S(=O)(=O)C(c1nnc(CC2SC(=O)NC2=O)o1)c1nc2c(F)cc(-c3ccccc3)cc2s1 (stereo not drawn) [Example 95, 5-((5-((4-fluoro-6-phenyl-benzo[d]thiazol-2-yl) (isopropylsulfonyl)methyl)-1,3,4-oxadiazol-2-yl)methyl)thiazolidine-2,4-dione] as the molecule, how does the IC50 read?
Its IC50 is less than 10 nM.
